Results taken from patent US20250163387A1, “HUMAN PITUITARY NEUROENDOCRINE TUMOR ORGANOIDS AND METHODS OF MAKING AND USING THE SAME” (ARIZONA BOARD OF REGENTS OF THE UNIVERSITY OF ARIZONA, A …, priority 2022, published 2025).
Numbered stars: 1 amine (or outer) side, 2 acyl side, 3 side chain; on linkers, the order of the positions; unused ones are H or OH. Square brackets hold non-standard residues; d marks the D form. Side chains are listed from the residue outwards. Peptide text beside a SMILES is read from it. * marks the point of attachment. Ethylenediamine = C(CN[*:2])N[*:1]; Hyp = O=C(O)[C@@H]1C[C@@H](O)CN1; Phg = N[C@H](C(=O)O)c1ccccc1; CO = O=C([*:1])[*:2]; Bn = c1ccc(C*)cc1

What was measured:
[1] = test system: SSTR5; assay: Differential expression of SSTR5 in iPSC generated pituitary tumor organoids; assay type: cell-based, human; settings: for effect on relacorilant stimulated SSTR5: iPSC organoids; for effect of pretreatment on Mifepristone-induced SSTR5 expression / differential expression of SSTR5: iPSC^ctrl organoids; for effect of pretreatment on Mifepristone-induced SSTR5 expression: GANT 5 uM, Keto 10 uM; for differential expression of SSTR5: drug alone (Mife 500 nM, GANT 5 uM, Keto 10 uM, Dexa 100 nM)
[2] = test system: transcriptional regulation of POMC by Gli1; assay: Gene ChIP assay in hPITO cultures expressing USP8 and USP48 mutations; assay type: cell-based, human
[3] = test system: SSTR2; assay: Differential expression of SSTR2 in iPSC generated pituitary tumor organoids; assay type: cell-based, human; settings: for effect on relacorilant stimulated SSTR2: iPSC organoids; for effect of pretreatment on Mifepristone-induced SSTR2 expression / differential expression of SSTR2: iPSC^ctrl organoids; for effect of pretreatment on Mifepristone-induced SSTR2 expression: GANT 5 uM, Keto 10 uM; for differential expression of SSTR2: drug alone (Mife 500 nM, GANT 5 uM, Keto 10 uM, Dexa 100 nM)
[4] = test system: hPITO35; settings: for Dose response (cell viability): organoid 35, compared to Cabergoline
Protocol: (§1) Organoids were grown in Matrigel™ domes within 96-well round-bottom culture plates. Recombinant human SHH was removed from the pituitary organoid growth media, 24 hrs. prior to drug treatment. Organoids were treated with either vehicle (DMSO), cabergoline (Selleckchem S5842), ketoconazole (Selleckchem S1353), roscovitine (Selleckchem S1153), GANT61 (Stemcell Technologies 73692), pasireotide (TargetMol TP2207), mifeprostone (Selleckchem S2606), etomidate (Selleckchem S1329), mitotane (Selleckchem S1732), metyropane (Selleckchem S5416), or osilodrostat (Selleckchem S7456) at concentrations of 0, 1, 10, 100, 1000, and 10000 nM for 72 hours. Percent cell viability was measured using an MTS assay (Promega G3580). Absorbance was measured at 490 nm and normalized to the vehicle. Concentrations were plotted in a logarithmic scale, and a nonlinear dose-response curve regression was calculated using GraphPad Prism. An IC50 value for each drug treatment was determined based on the dose response curve using GraphPad Prism analysis software.

[5] = test system: iPSC^USP48MV organoids; assay: ACTH secretion ELISA of conditioned media; assay type: cell-based, human; settings: for effect on ACTH secretion in response to Mifepristone: 100 nM with Mife 500 nM
Protocol: (§2) Concentration of secreted ACTH in conditioned media that was collected from organoid cultures was measured using the Human ACTH ELISA Kit (Novus Biologicals, NBP2-66401) according to the manufacturer's protocol. The enzyme-substrate reaction was measured spectrophotometrically (BioTek Gen5 Micro Plate Reader Version 3.11) at a wavelength of 450 nm and the ACTH concentration (pg/mL) was interpolated using a standard curve with a 4-parameter logistic regression analysis using GraphPad Prism (Version 9.2.0).

[6] = test system: iPSC^ctrl organoids; assay: ACTH secretion ELISA of conditioned media; assay type: cell-based, human; settings: for effect on ACTH secretion in response to Mifepristone: 100 nM with Mife 500 nM
Protocol: as §2

[7] = test system: iPSC^USP48MV organoids; assay: Proliferation by EdU uptake; assay type: cell-based, human; settings: 100 nM
Protocol: (§3) Organoids were immunostained using published protocols by our laboratory. Proliferation was measured by using 5-ethynyl-2'-deoxyuridine (EdU) incorporation according to the Manufacturer's protocol (Click-IT EdU Alexa Fluor 555 Imaging Kit, Thermo Fisher Scientific C10338). Costaining was performed by blocking fixed organoids with 2% donkey serum (Jackson Immuno Research, #017-000-121) diluted in 0.01% PBST for 1 hr. at room temperature. Organoids were then incubated overnight at 4° C. with primary antibodies followed by secondary antibodies and Hoechst (Thermo Fisher Scientific H1399, 1:1000 in 0.01% PBST) for 1 hr at room temperature. Human specific primary antibodies used included: rabbit anti-ACTH (Thermo Fisher Scientific 701293, 1:250), rabbit anti-Synaptophysin (Thermo Fisher Scientific PA5-27286, 1:100), […] (Thermo Fisher Scientific PA5-98650, 1:50), rabbit anti-LH (Thermo Fisher Scientific PA5-102674, 1:100), mouse anti-FSH (Thermo Fisher Scientific MIF2709, 1:100), mouse anti-PRL (Thermo Fisher Scientific CF500720, 1:100), Alexa Flour conjugated GH (NB500-364AF647, 1:100) and mouse anti-CAM5.2 (SIGMA […]-95, 1:250). The secondary antibodies used included Alexa Fluor 488 Donkey Anti Rabbit IgG (H+L) (Thermo Fisher Scientific A21206, 1:100) or Alexa Fluor 647 Donkey Anti Mouse IgG (H+L) (Thermo Fisher Scientific A31571, 1:100). Organoids were visualized and images acquired by confocal microscopy using the Nikon CrestV2 Spinning Disk. Fluorescence intensity and percentage of EdU positive cells of total cells, were calculated using Nikon Elements Software (Version 5.21.05).

[8] = test system: iPSC^ctrl organoids; assay: Proliferation by EdU uptake; assay type: cell-based, human; settings: 100 nM
Protocol: as §3

[9] = target: SSTR5 (Homo sapiens, UniProt P35346); settings: cited from earlier work
SSTR5 (Homo sapiens, UniProt P35346), sequence (P35346 whole entry): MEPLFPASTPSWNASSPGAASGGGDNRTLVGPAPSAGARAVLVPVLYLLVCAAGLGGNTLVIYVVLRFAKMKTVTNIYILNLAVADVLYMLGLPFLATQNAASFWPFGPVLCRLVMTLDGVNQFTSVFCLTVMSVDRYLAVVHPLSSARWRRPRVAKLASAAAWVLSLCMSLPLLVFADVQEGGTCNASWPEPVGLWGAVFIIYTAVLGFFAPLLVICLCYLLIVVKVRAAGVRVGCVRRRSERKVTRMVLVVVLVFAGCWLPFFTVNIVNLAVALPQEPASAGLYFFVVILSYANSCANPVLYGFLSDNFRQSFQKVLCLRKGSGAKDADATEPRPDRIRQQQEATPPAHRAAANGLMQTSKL

[10] = test system: hPITO33; assay: Drug dose response, MTS cell viability assay; assay type: cell-based, human
[11] = test system: hPITO34
Protocol: as §1

[12] = monotherapy; cited from earlier work
[13] = test system: hPITO37; assay: Spectral flow cytometry (SSTR2, SSTR5, ACTH, zombie); assay type: cell-based, human; settings: Pas 837.5 nM, Mife 2.85 nM
Protocol: The multicolor flow cytometry panel was designed using the Cytek®Full Spectrum Viewer online tool to calculate the similarity index. The organoids were harvested in cold SFDM media and centrifuged at 400×g for 5 minutes. Supernatant was discarded and organoids were dissociated to single cells using Accutase® (Thermo Fisher Scientific 00-4555-56). The enzymatic reaction was stopped using prewarmed DPBS and cells were then centrifuged at 400×g for 5 minutes and incubated with fluorochrome-conjugated/unconjugated primary surface or cytoplasmic antibodies at 4° C. for 30 minutes. Cells were then washed with Cell Staining Buffer (BioLegend #420-201) and incubated with secondary antibodies at 4° C. for 30 minutes. Cells were fixed using Cytofix/Cytoperm™ Fixation/Permeabilization Solution (BD Biosciences #554714) at 4° C. for 20 minutes, followed by washing with Fixation/Permeabilization wash buffer. Cells were then labeled with fluorochrome-conjugated/unconjugated intracellular primary antibodies at 4° C. for 30 minutes, washed and incubated with secondary antibodies at 4° C. for 30 minutes. Cells resuspended in cell staining buffer and fluorescence measured using the Cytek Aurora 5 Laser Spectral Flow Cytometer. An unstained cell sample was fixed and used as reference control. UltraComp eBeads™, Compensation Beads (Thermo Fisher Scientific #01-2222-42) were stained with the individual antibodies and used as single stain control for compensation and gating. Data was acquired using the Cytek™ Aurora and analyzed using Cytobank software (Beckman Coulter, Indianapolis, IN).

[14] = test system: hPITOs generated from CD patients; assay: High-throughput drug screen, MTS assay; assay type: cell-based, human; settings: 1 uM, 72 hrs
Protocol: Patient adenoma-derived pituitary organoids were grown in 96-well plates and treated with 147 small molecules taken from the NCI AOD9 compound library for 72 hrs. (https://dtp.cancer.gov/organization/dscb/obtaining/available_plates.html). Drugs were diluted from 10 mM DMSO stock plates into 100 uM DMSO working stocks with a final concentration of 1 uM. All vehicle controls were treated with 0.1% DMSO. Organoid proliferation was measured using CellTiter 96® AQueous One Solution Cell Proliferation Assay kit (MTS, Promega, G3582) according to the manufacturer's instruction. Organoid death was calculated based on the absorbance readings at 490 nm, collected from the MTS assay relative to the vehicle controls. Drug screens were performed with biological replicates in same screen. Drugs were selected based on their ability to target key signaling pathways and clinical relevance to the treatment. Drug sensitivity is represented by cell viability and is significant at <0.5 suppressive effect of the drugs. The percent cell viability relative to the vehicle control was calculated. Correlation coefficient across each organoid were calculated using Pearson method to assess confidence in replication. Variance Component was detected for each drug across all organoids. A random effect model was run with a single random factor for each drug and estimated variance was calculated by rejecting the null hypothesis that there isn't variation among samples. The drug responses were grouped by variance factor large (vc>100), median (100>vc>50), and small (vc<50). Heatmap was used to display the differential responses in cell viability for the drugs.
Tumor recurrence can occur in as many as 30-50% of CD patients after successful surgical treatment. Unfortunately, bilateral adrenalectomy is the chosen surgical treatment for patients with persistent CD [35]. Bilateral adrenalectomy leads to the increased risk for development of Nelson's syndrome (progressive hyperpigmentation due to ACTH secretion and expansion of the residual pituitary tumor). Although the risk of developing Nelson's syndrome following adrenalectomy can be reduced by 50% with stereotactic radiotherapy, there is a need to develop medical therapies that directly target the pituitary adenoma. Thus, we established a high-throughput drug screening assay using patient-derived pituitary organoids. […] The replicates behaved consistently with the drug response with the correlation scores of >0.8 for these samples (FIG. 3a). We estimated the variance component for each drug across all organoids. […] The drug responses were grouped by variance factor large, median, and small. The larger the variance the more variable is the drug response across the organoids. […]

[15] = greater magnitude than Octreotide plus relacorilant

SMILES: CN(C)c1ccccc1CN1CCCN(Cc2ccccc2N(C)C)C1c1ccncc1 [GANT61]
- effect on relacorilant stimulated SSTR5 [1]: inhibited
- effect of pretreatment on Mifepristone-induced SSTR5 expression [1]: reduced
- differential expression of SSTR5 [1]: no effect
- transcriptional regulation of POMC by Gli1 (ChIP) [2]: blocked
- effect on relacorilant stimulated SSTR2 [3]: inhibited
- effect of pretreatment on Mifepristone-induced SSTR2 expression [3]: reduced
- differential expression of SSTR2 [3]: no effect

SMILES: CC(C)(C(=O)c1cccnc1)c1cccnc1 [Metyrapone]
- Dose response (cell viability) [4]: better responses than Cabergoline

SMILES: C[C@@H](O)[C@@H]1NC(=O)[C@H](CCCCN)NC(=O)[C@@H](Cc2c[nH]c3ccccc23)NC(=O)[C@H](Cc2ccccc2)NC(=O)[C@@H](NC(=O)[C@H](N)Cc2ccccc2)CSSC[C@@H](C(=O)N[C@H](CO)[C@@H](C)O)NC1=O [Octreotide]
- effect on ACTH secretion in response to Mifepristone [5]: significantly reduced
- effect on ACTH secretion in response to Mifepristone [6]: significantly reduced
- effect of pretreatment on the proliferative response to Mife [7]: inhibited
- effect of pretreatment on the proliferative response to Mife [8]: inhibited

SMILES: NCCCC[C@@H]1NC(=O)[C@@H](Cc2c[nH]c3ccccc23)NC(=O)[C@H](c2ccccc2)NC(=O)[C@@H]2C[C@@H](OC(=O)NCCN)CN2C(=O)[C@H](Cc2ccccc2)NC(=O)[C@H](Cc2ccc(OCc3ccccc3)cc2)NC1=O [Pasireotide] (cyclo([Hyp]([CO-Ethylenediamine])[Phg][dW]KY(Bn)F))
- effect on ACTH secretion in response to Mifepristone [5]: significantly reduced
- hormone (ACTH) secretion in combination with relacorilant [5, 15]: reduced hormone secretion
- effect on ACTH secretion in response to Mifepristone [6]: significantly reduced
- hormone (ACTH) secretion in combination with relacorilant [6, 15]: reduced hormone secretion
- binding to SSTR5 [9]: high-affinity binding
- effect of pretreatment on the proliferative response to Mife [7]: no effect
- effect of pretreatment on the proliferative response to Mife [8]: no effect
- IC50 ([10]; hPITO33, 72 hours, MTS cell viability): 1200 nM
- IC50 ([11]; hPITO34, 72 hours, MTS cell viability): 6.1 nM
- IC50 ([4]; hPITO35, 72 hours, MTS cell viability): 1000 nM
- patients with CD in whom cortisol is normalized [12]: up to 42%
- effect of pretreatment on Mife-increased number of ACTH expressing cells [13]: not inhibited

SMILES: C=CCN1C[C@H](C(=O)N(CCCN(C)C)C(=O)NCC)C[C@@H]2c3cccc4[nH]cc(c34)C[C@H]21 [cabergoline]
- Dose response (cell viability) ([10]; organoid 33, compared to Metyrapone and osilodrostat): better response at lower dose
- response of the adenoma cells within the organoids ([14]; hPITO7, 10 and 25): ~0%
- response of the adenoma cells within the organoids ([14]; hPITO34 and hPITO35): 50%
- Dose response (cell viability) ([11]; organoid 34, compared to Metyrapone and osilodrostat): better response at lower dose

SMILES: CC(=O)N1CCN(c2ccc(OCC3COC(Cn4ccnc4)(c4ccc(Cl)cc4Cl)O3)cc2)CC1 (centres unmarked) [ketoconazole]
- effect on relacorilant stimulated SSTR5 [1]: failed to block
- effect of pretreatment on Mifepristone-induced SSTR5 expression [1]: no effect
- differential expression of SSTR5 [1]: no effect
- effect on relacorilant stimulated SSTR2 [3]: failed to block
- effect of pretreatment on Mifepristone-induced SSTR2 expression [3]: no effect
- differential expression of SSTR2 [3]: no effect

SMILES: N#Cc1ccc([C@H]2CCc3cncn32)c(F)c1 [osilodrostat]
- Dose response (cell viability) [4]: better responses than Cabergoline
